Here are results for 2 compounds from patent US20260151384A1, “ISOQUINOLINE DERIVATIVES AS PROTEIN DEGRADERS, E7 DEGRADERS, ANTIVIRALS, TUMOR THERAPEUTICS AND IMMUNE SUPPRESSIVES” (priority 2022, published 2026).

The nature of data set [1]: Pharmacokinetics of VSP034 and VSP035, oral liposomal formulation. It is filed as in vivo, female Sprague-Dawley rats. The following applies: 100 mg/kg oral gavage; Student's t test, significant. As to the method: The pharmacokinetic parameters of VSP034 and VSP035 encapsulated as liposomal formulation were assessed after the administration of a single 100 mg/kg dose by oral gavage to 6 female Sprague-Dawley rats weighting 250 grams (±25g). The animals were randomized into two experimental groups (Groups 1 and 2), each composed of 3 rats. Rats belonging to group 1 were administered with VSP034 and rats belonging to group 2 were administered with VSP035. Blood was collected at baseline and 15 min, 30 min, 1, 2, 4, 6, 8, and 24 hours after the oral gavage. The rats were sacrificed 24 hours after the dosing. Blood was collected at each timepoint from the caudal vein, with the exception of the last collection (24 hours), which was performed by intracardiac puncture at the moment of sacrifice under isoflurane anesthesia. The animals were weighted immediately before the dosing to assess the proper dose and carefully monitored during the experiment. […] The main pharmacokinetic parameters (half-life, t1/2; time to maximum plasma concentration, Tmax; maximum plasma concentration, Cmax, AUC Extrapolated to Infinity, AUC0-inf; mean residence time, MRT; Apparent Volume of Distribution During Terminal Phase, VZ/F; and apparent oral clearance, CL/F) were calculated from the coefficients and exponents of the best-fits by using standard formulae.

Data set [2] concerns SARS-CoV-2. It is filed as cell-based.
The test system of data set [3] is SARS-CoV-2. Briefly: SARS-CoV-2 antiviral activity, mono treatment or combinations, Vero E6 cells (Test 18). The conditions noted are these: 10, 5, 2.5, 1.25, 0.625 μM; FIG. 10. It counts as cell-based. The text has this:
SARV-CoV-2 antiviral activity of VSP035 from mono treatment, or in combination with various pharmacological drug substances at various concentrations shown by the bars from left to the right. Y axis % Inhibition. Due to lethal concentrations for Vero E6 cells, dose dependency is visible at non-lethal doses only (median of multiple experiments n4 is shown); Concentrations (left to right) Compounds and respective assay concentrations in μM are, “constant” means same concentration for the series (X axis, numbers for series): (FIG. 10).

The target in another data set is HPV16 E7 protein (Human papillomavirus type 16, UniProt P03129). Briefly: Western blot of E7 steady state level in CaSki cells. The conditions noted are these: 10 μM, up to 24 hours. It counts as cell-based. On the procedure: Reagents for Extract preparation and Western Blotting: Extraction Buffer: 2.5× (Tris 0.25M pH6.8, Glycerol 50%, SDS 10%), Gels: 4-12% gradient gels (Bolt® 4-12% Bis-Tris Plus Gel). MES Buffer: 50 mM MES, 50 mM Tris Base, 0.1% SDS, 1 mM EDTA, pH 7.3, Blotting membrane: Nitrocelulose 0.2 μm (Whatman Protran #10401394), 3MM filter paper (e.g. Whatman 3MM Chr, #3030917). Western Detection Reagents: WB Wash Buffer 1× (TBET): 20 mM Tris, 150 mM NaCl, 0.125% Tween20, pH 7.8; skim-milk powder (less than 0.15% fat content). Phosphate buffered saline (PBS) 1×: prepared as 1 L add 8 g sodium chloride (NaCl), 0.2 g potassium chloride (KCl), 1.44 g sodium phosphate, dibasic (Na2HPO4) and 0.24 g potassium phosphate, monobasic (KH2PO4) to 1 L dH2O, pH adjusted to 7.2.
Chain of HPV16 E7 protein (P03129 whole entry): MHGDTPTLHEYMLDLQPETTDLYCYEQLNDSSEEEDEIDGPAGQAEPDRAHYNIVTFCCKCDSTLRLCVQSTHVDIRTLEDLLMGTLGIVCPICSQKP
B) For cells in cell culture the following procedure for the preparation of a total cell extract is used. Freshly seeded cells are grown for 24 hours to obtain 65-75% confluency (corresponds for CaSki cells to a plating of approx. 2×10^6 cells/10 cm Ø cell culture dish). Cell culture dishes with medium are out on ice for 5 minutes. […]
Dilute secondary anti-mouse HRP antibody in WB Blocking Buffer according to manufacturer instruction (e.g. CST Anti mouse IgG HRP-linked Ab, #7076, 1:3000). […] The membranes are developed using standard chemo luminescence (ECL) detection systems following imaging with Licor or Viber devices. […]
Background: In western blotting, separated proteins are transferred to a membrane and probed.

A further data set concerns PDL-1. Briefly: Western blot of PDL-1 in CaSki cells. It is filed as cell-based, human. The following applies: 4 and 8 hours, dose dependent. On the procedure:
24 h after seeding, cells were treated with VSP035, cycloheximide (CHX) and/or MG132 protasome inhibitor as indicated. Cells were harvested for analysis for BY WB. […] In particular, faster migrating band abundancy was regulated by proteasome inhibitor MG132 and the protein was destabilized in the presence of CHX.

The subject of a further data set is 4E-BP1. Briefly: Western blot of 4E-BP1 phosphorylation in CaSki cells. It counts as cell-based, human. The conditions noted are these: 6 h, 10 μM & 5 μM. The text has this: Thus, clearly distinguishing downstream-effects in comparison to a general TOR Kinase inhibition.
Data set [4] deals with SARS-CoV-2. As to the kind of experiment: microbe, parasite or virus in culture. It is filed as cell-based. The conditions noted are these: 1.25 μM, n4.
The subject of data set [5] is p38, JNK1, ERK1/2, PKC, or Src-like kinases. The following applies: cited from earlier work.

The term inhibition denotes the relative decrease from the control value, in per cent. Read a low inhibition as little suppression. Consider `CN1CCC(CN2C(=O)c3ccccc3[C@H](C(=O)Nc3cccc(N4CCN(C)CC4)c3)[C@H]2c2ccc(C(F)(F)F)cc2)CC1` [VSP035, (3S,4S)—N-[3-(4-methylpiperazin-1-yl)phenyl]-2-[(1-methylpiperidin-4-yl)methyl]-1-oxo-3-[4-(trifluoromethyl)phenyl]-1,2,3,4-tetrahydroisoquinoline-4-carboxamide], for which, in data set [1], the “AUC higher than that of VSP034” value turned out to be 4 fold. Besides, the inhibition in the data set on SARS-CoV-2 [2] is on record as 72±7.7%. The “antiviral activity as single agent” value with SARS-CoV-2 [3] is “Robust antiviral activities”. For the same compound, on HPV16 E7 protein, the “HPV 16 E7 protein degradation time course (western blot)” value was “stable e7 reduction”. In the data set with PDL-1, the “regulation of PDL-1 (western blot)” value is listed as “valid pdl-1 destabilizer”. Further, the “phosphorylation state of 4E-BP1” value in the data set with 4E-BP1 was “dose dependent hypophosphorylation”.

`Nc1ncnc2n[nH]c(Nc3ccc(F)cc3)c12` [CGP57380]: the “% Inhibition of SARV-CoV-2 virus activity” value in the data set with SARS-CoV-2 [4] is 17.71%. Also, the “inhibitory activity against p38, JNK1, ERK1/2, PKC, or Src-like kinases” value in data set [5] is on record as “no inhibitory activity”.
